Values joined by “and” are separate entries in the source; they are usually repeats but may differ in a detail not shown here. Identical values can stand only once. Inconclusive results and toxic doses are left out. Rule for the calls: active = survival T/C of 150% or more; inactive = T/C below 125% in these data.
Tested on: P388 leukemia ip, CD2F1 mice, survival T/C
Assay: NCI In Vivo Anticancer Drug Screen. Data for tumor model P388 Leukemia (intraperitoneal) in CD2F1 (CDF1) mice
Details: endpoint: median survival time, higher = longer survival
In short: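 Mice carrying the transplanted tumor received test compound or vehicle. Survival was recorded in each group, and the value is the treated-group measurement divided by that of the vehicle-treated control group.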

[1] = dose: 50.0 mg/kg/injection, schedule: Q01DX005 (ip), vehicle: saline with Tween-80
[2] = dose: 100.0 mg/kg/injection, schedule: Q01DX005 (ip), vehicle: saline with Tween-80

Measured: T/C

CCCCC(=O)OCC(=O)[C@]1(O)Cc2c(O)c3c(c(O)c2[C@@H](OC2CC(NC(=O)C(F)(F)F)C(O)C(C)O2)C1)C(=O)c1c(OC)cccc1C3=O (stereo partly drawn)
active: dose: 6.48 mg/kg/injection, schedule: Q01DX009 (ip), vehicle: clinical formulation 162 % of control | dose: 10.8 mg/kg/injection, schedule: Q01DX009 (ip), vehicle: clinical formulation 189 % of control and 193 % of control | dose: 18.0 mg/kg/injection, schedule: Q01DX009 (ip), vehicle: clinical formulation 224 % of control and 232 % of control | dose: 30.0 mg/kg/injection, schedule: Q01DX004 (ip), vehicle: distilled water + Tween-80 196 % of control and 333 % of control | dose: 30.0 mg/kg/injection, schedule: Q01DX009 (ip), vehicle: clinical formulation 303 % of control and 560 % of control | dose: 32.4 mg/kg/injection, schedule: Q04DX003 (ip), vehicle: clinical formulation 156 % of control | dose: 36.0 mg/kg/injection, schedule: Q04DX003 (ip), vehicle: clinical formulation 163 % of control | dose: 37.5 mg/kg/injection, schedule: Q04DX003 (ip), vehicle: saline with Tween-80 156 % of control | dose: 40.0 mg/kg/injection, schedule: Q01DX004 (ip), vehicle: distilled water + Tween-80 171 % of control | dose: 54.0 mg/kg/injection, schedule: Q04DX003 (ip), vehicle: clinical formulation 193 % of control | dose: 60.0 mg/kg/injection, schedule: Q04DX003 (ip), vehicle: clinical formulation 219 % of control | dose: 64.0 mg/kg/injection, schedule: Q04DX003 (ip), vehicle: saline with Tween-80 153 % of control and 161 % of control | dose: 75.0 mg/kg/injection, schedule: Q04DX003 (ip), vehicle: clinical formulation 189 % of control | dose: 75.0 mg/kg/injection, schedule: Q04DX003 (ip), vehicle: saline with Tween-80 180 % of control | dose: 90.0 mg/kg/injection, schedule: Q04DX003 (ip), vehicle: clinical formulation 219 % of control | dose: 100.0 mg/kg/injection, schedule: Q04DX003 (ip), vehicle: clinical formulation 242 % of control | dose: 128.0 mg/kg/injection, schedule: Q04DX003 (ip), vehicle: saline with Tween-80 168 % of control and 180 % of control and 201 % of control | dose: 150.0 mg/kg/injection, schedule: Q04DX003 (ip), vehicle: saline with Tween-80 243 % of control and 270 % of control | dose: 150.0 mg/kg/injection, schedule: Q04DX003 (iv), vehicle: saline with Tween-80 153 % of control | dose: 256.0 mg/kg/injection, schedule: Q04DX003 (ip), vehicle: saline with Tween-80 173 % of control and 190 % of control and 257 % of control | dose: 300.0 mg/kg/injection, schedule: Q04DX003 (ip), vehicle: saline with Tween-80 252 % of control | dose: 300.0 mg/kg/injection, schedule: Q04DX003 (iv), vehicle: saline with Tween-80 222 % of control | dose: 600.0 mg/kg/injection, schedule: Q04DX003 (iv), vehicle: saline with Tween-80 169 % of control
inactive: dose: 0.5 mg/kg/injection, schedule: Q04DX003 (ip), vehicle: saline with Tween-80 98 % of control | dose: 1.0 mg/kg/injection, schedule: Q04DX003 (ip), vehicle: saline with Tween-80 104 % of control | dose: 1.4 mg/kg/injection, schedule: Q01DX009 (ip), vehicle: clinical formulation 124 % of control | dose: 2.0 mg/kg/injection, schedule: Q04DX003 (ip), vehicle: saline with Tween-80 99 % of control and 101 % of control | dose: 4.0 mg/kg/injection, schedule: Q04DX003 (ip), vehicle: saline with Tween-80 100 % of control and 101 % of control and 105 % of control | dose: 8.0 mg/kg/injection, schedule: Q04DX003 (ip), vehicle: saline with Tween-80 114 % of control and 121 % of control and 97 % of control | dose: 9.38 mg/kg/injection, schedule: Q04DX003 (ip), vehicle: clinical formulation 111 % of control | dose: 13.0 mg/kg/injection, schedule: Q04DX003 (ip), vehicle: clinical formulation 124 % of control | dose: 16.0 mg/kg/injection, schedule: Q04DX003 (ip), vehicle: saline with Tween-80 121 % of control | dose: 18.75 mg/kg/injection, schedule: Q04DX003 (ip), vehicle: clinical formulation 118 % of control | dose: 37.5 mg/kg/injection, schedule: Q04DX003 (ip), vehicle: clinical formulation 123 % of control | dose: 37.5 mg/kg/injection, schedule: Q04DX003 (iv), vehicle: saline with Tween-80 120 % of control | dose: 50.0 mg/kg/injection, schedule: Q01DX004 (ip), vehicle: distilled water + Tween-80 91 % of control | dose: 50.0 mg/kg/injection, schedule: Q01DX009 (ip), vehicle: clinical formulation 110 % of control | dose: 60.0 mg/kg/injection, schedule: Q01DX004 (ip), vehicle: distilled water + Tween-80 89 % of control | dose: 75.0 mg/kg/injection, schedule: Q04DX003 (iv), vehicle: saline with Tween-80 106 % of control | dose: 300.0 mg/kg/injection, schedule: Q04DX003 (ip), vehicle: clinical formulation 87 % of control | dose: 512.0 mg/kg/injection, schedule: Q04DX003 (ip), vehicle: saline with Tween-80 117 % of control | dose: 1024.0 mg/kg/injection, schedule: Q04DX003 (ip), vehicle: saline with Tween-80 107 % of control

O=[N+]([O-])CCc1ccc(OC2OC(CO)C(O)C(O)C2O)cc1 (stereo not drawn)
inactive: dose: 100.0 mg/kg/injection, schedule: Q04DX002 (ip), vehicle: saline 104 % of control | dose: 200.0 mg/kg/injection, schedule: Q04DX002 (ip), vehicle: saline 102 % of control | dose: 400.0 mg/kg/injection, schedule: Q04DX002 (ip), vehicle: saline 97 % of control

COc1cc2c(cc1OC)C1C(O)C(OC)C(O)C3=CCN(C2)C31 (stereo not drawn)
inactive: dose: 50.0 mg/kg/injection, schedule: Q01DX009 (ip), vehicle: saline 100 % of control | dose: 100.0 mg/kg/injection, schedule: Q01DX009 (ip), vehicle: saline 104 % of control | dose: 200.0 mg/kg/injection, schedule: Q01DX009 (ip), vehicle: saline 102 % of control

Nc1nc(=S)c2[nH]c(=S)n(C3OC(CO)C(O)C3O)c2[nH]1 (stereo not drawn)
inactive: dose: 25.0 mg/kg/injection, schedule: Q01DX005 (ip), vehicle: Klucel (hydroxypropylcellulose) (HPC) 100 % of control | dose: 50.0 mg/kg/injection, schedule: Q01DX005 (ip), vehicle: Klucel (hydroxypropylcellulose) (HPC) 105 % of control | dose: 100.0 mg/kg/injection, schedule: Q01DX005 (ip), vehicle: Klucel (hydroxypropylcellulose) (HPC) 103 % of control | dose: 200.0 mg/kg/injection, schedule: Q01DX005 (ip), vehicle: Klucel (hydroxypropylcellulose) (HPC) 112 % of control

C/C=C(\C)C(=O)OC1C(C)=C2C(C1OC(=O)CCCCC)C(C)(OC(C)=O)CC(OC(=O)CCC)C1(O)C2OC(=O)C1(C)O (stereo not drawn)
inactive: dose: 0.25 mg/kg/injection, schedule: Q01DX005 (ip), vehicle: Klucel (hydroxypropylcellulose) (HPC) 105 % of control | dose: 0.5 mg/kg/injection, schedule: Q01DX005 (ip), vehicle: Klucel (hydroxypropylcellulose) (HPC) 99 % of control and 123 % of control | dose: 1.0 mg/kg/injection, schedule: Q01DX005 (ip), vehicle: Klucel (hydroxypropylcellulose) (HPC) 105 % of control | dose: 2.0 mg/kg/injection, schedule: Q01DX005 (ip), vehicle: Klucel (hydroxypropylcellulose) (HPC) 106 % of control

O=C(N/N=C/c1ccc(F)cc1)c1ccncc1
inactive: dose: 50.0 mg/kg/injection, schedule: Q01DX009 (ip), vehicle: saline with Tween-80 91 % of control | dose: 100.0 mg/kg/injection, schedule: Q01DX009 (ip), vehicle: saline with Tween-80 92 % of control | dose: 200.0 mg/kg/injection, schedule: Q01DX009 (ip), vehicle: saline with Tween-80 90 % of control

[B-][N+](C)(C)C
inactive: [1] 98 % of control | [2] 98 % of control

Cc1cc(N=[N+]=[N-])c2cc(F)ccc2n1
inactive: dose: 30.0 mg/kg/injection, schedule: Q01DX005 (ip), vehicle: saline with Tween-80 92 % of control | dose: 60.0 mg/kg/injection, schedule: Q01DX005 (ip), vehicle: saline with Tween-80 90 % of control and 92 % of control

CCCN(CCC)C(C)C(O)c1cccc2ccccc12 (stereo not drawn)
inactive: dose: 50.0 mg/kg/injection, schedule: Q01DX005 (ip), vehicle: saline 97 % of control | dose: 100.0 mg/kg/injection, schedule: Q01DX005 (ip), vehicle: saline 109 % of control

O=Cc1c2cnc(c1O)CSCc1ccc(cc1)CSC2
inactive: [1] 104 % of control | [2] 110 % of control | dose: 200.0 mg/kg/injection, schedule: Q01DX005 (ip), vehicle: saline with Tween-80 113 % of control

O=C1N=C2SCCN2C1(c1ccccc1)c1ccccc1
inactive: dose: 25.0 mg/kg/injection, schedule: Q04DX003 (ip), vehicle: Klucel (hydroxypropylcellulose) (HPC) 100 % of control | dose: 50.0 mg/kg/injection, schedule: Q04DX003 (ip), vehicle: Klucel (hydroxypropylcellulose) (HPC) 100 % of control | dose: 100.0 mg/kg/injection, schedule: Q04DX003 (ip), vehicle: Klucel (hydroxypropylcellulose) (HPC) 92 % of control | dose: 200.0 mg/kg/injection, schedule: Q04DX003 (ip), vehicle: Klucel (hydroxypropylcellulose) (HPC) 109 % of control | dose: 400.0 mg/kg/injection, schedule: Q04DX003 (ip), vehicle: Klucel (hydroxypropylcellulose) (HPC) 103 % of control

Source: PubChem BioAssay AID330 (DTP/NCI, 2004)
